Among the data in ChEMBL document CHEMBL1129344, “Chemical synthesis of benzamide adenine dinucleotide: inhibition of inosine monophosphate dehydrogenase (types I and II)” (J Med Chem, 1996) are IC50 and Ki values, retold here.

Experiment [1] is filed under the species Homo sapiens. Description: Compound was evaluated for inhibition of inosine monophosphate dehydrogenase type-I. It counts as functional, organism-based.
For experiment [2], the species on record is Homo sapiens. The experiment is described as follows: Compound was evaluated for inhibition of inosine monophosphate dehydrogenase type-II. It is filed as functional, organism-based.
The species named for experiment [3] is Homo sapiens. The experiment is described as follows: Compound was evaluated for binding affinity by enzymatically to inhibit IMPDH. It is filed as functional.
The species named for experiment [4] is Homo sapiens. Description: Compound was evaluated for inhibitory concentration of inosine monophosphate dehydrogenase. It counts as functional, organism-based.
The species entered for experiment [5] is Homo sapiens. The experiment is described as follows: Binding affinity towards less potent effect against alcohol dehydrogenase (ADH). It is filed as functional.
For experiment [6], the species on record is Homo sapiens. Description: Compound was evaluated for inhibitory concentration potent against IMPDH type-I. It is filed as functional, organism-based.
Experiment [7] is filed under the species Homo sapiens. The experiment is described as follows: Compound was evaluated for inhibitory concentration potent against IMPDH type-II. It is filed as functional, organism-based.

In general, IC50 refers to the concentration at which inhibition is half-maximal. A high value points to weaker potency in that assay. By Ki is commonly meant the dissociation constant of the complex between target and ligand, obtained from inhibition or displacement. Low values mean a stronger hold on the target, high ones a looser hold on the target. For the compound `NC(=O)c1cccc([C@@H]2O[C@H](CO)[C@@H](O)[C@H]2O)c1`, the half-inhibitory concentration (IC50) was 0.78 µM in experiment [1] and 0.88 µM in experiment [2]. In experiment [3], this compound had a Ki of 0.118 µM.
The compound `NC(=O)c1cncc([C@@H]2O[C@H](CO)[C@@H](O)[C@H]2O)c1` had a half-maximal inhibitory concentration (IC50) in experiment [4] of 7 µM.
In turn, `NC(=O)c1cccc([C@@H]2O[C@H](CO)[C@@H](O)[C@H]2O)n1` gave a Ki in experiment [5] of 0.02 µM. This compound yielded an IC50 in experiment [4] of 26 µM.
`NC(=O)c1csc([C@@H]2O[C@H](CO)[C@@H](O)[C@H]2O)n1` [TIAZOFURIN]: the IC50 worked out at 0.094 µM in experiment [6] and 0.101 µM in experiment [7].
